Reference: publication PMC2011106, “Structure/activity relationships for the enhancement by electron-affinic drugs of the anti-tumour effect of CCNU” (British Journal of Cancer, 1982)
“Also recorded” adds a separate entry of the source. Counter-ions that a name gives are not always drawn. Like-named read-outs stand apart in the source and are kept apart here.

Key:
RIF-1 sarcoma = system: RIF-1 sarcoma; set-up: method as in Siemann (1982); conditions: 5 mmol/kg; ref Siemann (1982); cited from earlier work
KHT tumour = system: KHT tumour; set-up: method as in Rauth et al. (1978); conditions: same tumour and mouse strain, similar timing; ref Rauth et al. (1978); cited from earlier work
KHT sarcoma = assay: regrowth-delay assay: enhancement of the anti-tumour effect of CCNU; assay type: in vivo, C3H mice; conditions: for enhancement of CCNU response relative to MISO: 2.5 mmol/kg 30 min before 10 mg/kg CCNU; for growth delay, test compound given alone: without CCNU; for sensitizer dose/response curve, activity: Fig. 4, various sensitizer doses
ascites L1210 leukaemia = system: ascites L1210 leukaemia; set-up: method as in Klubes et al., 1979; conditions: mice; ref Klubes et al., 1979; cited from earlier work
[1] = for toxicity at 2.5 mmol/kg: 2.5 mmol/kg i.p.; for toxicity: dose not stated, tested at MTD
[2] = at close to maximum tolerated dose (MTD, below 2.5 mmol/kg) 30 min before 10 mg/kg CCNU

## O=C(Cn1ccnc1[N+](=O)[O-])NCCO [SR-2508]
RIF-1 sarcoma
  enhancement of RIF-1 tumour response to CCNU: Some enhancement

## O=[N+]([O-])c1nccn1CC(O)CO (stereo not shown) [DEMIS, desmethylmisonida- zole]
KHT tumour
  in vivo radiosensitization: good radiosensitization
KHT sarcoma
  enhancement of CCNU response relative to MISO: considerably less active than MISO

## CCCC(C(=O)OCCN(CC)CC)(c1ccccc1)c1ccccc1 [SKF 525A, proadifen hydrochloride]
Ascites L1210 leukaemia
  effect on LD50 of methyl-CCNU: reducing the LD50
  response of ascites L1210 leukaemia to methyl-CCNU: increased the response
KHT sarcoma; 0.13 mmol/kg, 10 mg/kg CCNU, 10 mg/kg
  enhancement of CCNU response: increased the anti-tumour effect of CCNU; also recorded: active

## Cn1cnc([N+](=O)[O-])c1Sc1ncnc2nc[nH]c12 [azathioprine]
[1]
  toxicity at 2.5 mmol/kg: toxic
KHT sarcoma; 1.4 mmol/kg, compared with 2.5 mmol/kg MISO, 10 mg/kg CCNU
  enhancement of CCNU response: superior to 2-5 mmol/kg MISO
KHT sarcoma; [2]
  enhancement of CCNU response: more active than MISO
KHT sarcoma
  growth delay, test compound given alone: about 1 day

## CC1=C(C)C(=O)C(C)=C(C)C1=O [duroquinone]
[1]
  toxicity: quite toxic
KHT sarcoma; [2]
  enhancement of CCNU response: little or no activity

## O=[N+]([O-])c1nccn1CC(O)CN1CCCCC1 (stereo not shown) [compound 13]
KHT sarcoma
  enhancement of CCNU response relative to MISO: Neither was more effective than MISO
KHT sarcoma; listed as Ro 03-8799
  enhancement of CCNU response relative to MISO: slightly less than MISO

## Cc1ncc([N+](=O)[O-])n1CCO [METRO, metronidazole]
10 mmol/kg
  decrease in body temperature: 10 °C
KHT sarcoma
  enhancement of CCNU response relative to MISO: activities similar or even superior to MISO
KHT sarcoma; 10 mmol/kg + 10 mg/kg CCNU, Fig. 4
  tumour response: about the same as with 2-5 mmol/kg MISO
KHT sarcoma; 10 mg/kg CCNU
  sensitizer dose/response curve, activity: rather less active than MISO

## NC(=O)N/N=C/c1ccc([N+](=O)[O-])o1 [nitrofurazone]
[1]
  toxicity at 2.5 mmol/kg: toxic
KHT sarcoma; [2]
  enhancement of CCNU response: reasonable activity; also recorded: reasonably active, but less than 2-5 mmol/kg MISO

## c1c[nH]cn1 [imidazole]
KHT sarcoma; 5 mmol/kg (not shown), 10 mg/kg CCNU
  enhancement of CCNU response: ineffective

## O=C(Cn1ccnc1[N+](=O)[O-])NCc1ccccc1 [BENZO, benznidazole]
KHT sarcoma
  enhancement of CCNU response relative to MISO: most active
KHT sarcoma; 2.5 mmol/kg + 10 mg/kg CCNU compared with 20 mg/kg CCNU alone
  dose-modifying factor (DMF): > 2
KHT sarcoma; 10 mg/kg CCNU
  sensitizer dose/response curve, activity: good activity at doses down to 0-05-0-1 mmol/kg
KHT sarcoma; low doses 0.1-0.9 mmol/kg, 10 mg/kg CCNU
  activity relative to MISO at low doses: considerably more active than MISO

## O=NN(CCCl)C(=O)NC1CCCCC1 [CCNU, 1-(2-chloroethyl)-3-cyclohexyl-1-nitrosurea]
KHT sarcoma; CCNU 20 mg/kg alone, 11 independent experiments
  median growth delay: 10 days

## O=C1CN(/N=C/c2ccc([N+](=O)[O-])o2)C(=O)N1 [nitrofurantoin]
[1]
  toxicity at 2.5 mmol/kg: toxic
KHT sarcoma; [2]
  enhancement of CCNU response: virtually inactive

## O=[N+]([O-])c1cncn1CCN1CCOCC1 [nimorazole]
KHT sarcoma
  enhancement of CCNU response relative to MISO: activities similar or even superior to MISO

## O=C1c2ccccc2C(=O)c2cc(S(=O)(=O)O)ccc21 [anthraquinone sulphonate, anthraquinone-2-sulphonate]
[1]
  toxicity at 2.5 mmol/kg: non-toxic
2.5 mmol/kg
  decrease in body temperature: 5-6 °C
KHT sarcoma
  enhancement of CCNU response relative to MISO: reasonable activity

## Cn1cnc([N+](=O)[O-])c1S(=O)(=O)Oc1ccccc1 [NSC 38087]
[1]
  toxicity at 2.5 mmol/kg: toxic
  toxicity: highly toxic
KHT sarcoma; [2]
  enhancement of CCNU response: little activity at MTD

## COCC(O)Cn1ccnc1[N+](=O)[O-] (stereo not shown) [MISO, misonidazole]
mouse, in vivo
  decrease in body temperature: 1-2
KHT sarcoma; mouse, in vivo, 10 mg/kg
  Activity Index (AI) for enhancement of CCNU effect: 1

## NC(=O)c1cc(N2CC2)c([N+](=O)[O-])cc1[N+](=O)[O-] [CB 1954, 2,4-dinitro-5-aziridinylbenzamide]
[1]
  toxicity at 2.5 mmol/kg: toxic
  toxicity: rather toxic
KHT sarcoma; mouse, in vivo
  enhancement of CCNU response: no enhancement of CCNU response at MTD
KHT sarcoma
  growth delay, test compound given alone: about 1 day

## CC1=CC(=O)c2ccccc2C1=O [menadione]
[1]
  toxicity: quite toxic
KHT sarcoma; [2]
  enhancement of CCNU response: little or no activity
